Assay results as given in ChEMBL document CHEMBL1201862, “PubChem BioAssay data set” (2004).
“And” between values parts separate entries of the source, which are not always exact repeats. Equal entries are not always repeated.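 Following 48 hours of exposure in 96-well plates, responses at five concentrations were used to interpolate endpoints linearly. GI50 = concentration required for 50% inhibition of growth.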 The source made the active and inactive calls. Cut-off read from the data, not from the text of the source: active = GI50 up to about 1.1 µM and inactive = higher.

Columns and labels:
Assay in all cases: DTP human tumour cell line panel, 48 h
HL-60 = tested on: HL-60
BT-549 = tested on: BT-549
SK-MEL-2 = tested on: SK-MEL-2
NCI/ADR-RES = tested on: NCI/ADR-RES
CCRF-CEM = tested on: CCRF-CEM
M14 = tested on: M14
ACHN = tested on: ACHN
SR = tested on: SR
SNB-75 = tested on: SNB-75
MDA-MB-435 = tested on: MDA-MB-435
RXF 393 = tested on: RXF 393
A498 = tested on: A498
UACC-257 = tested on: UACC-257
OVCAR-8 = tested on: OVCAR-8
MDA-MB-231 = tested on: MDA-MB-231
NCI-H460 = tested on: NCI-H460
MOLT-4 = tested on: MOLT-4
SNB-19 = tested on: SNB-19
PC-3 = tested on: PC-3

Measured: GI50

Cc1cc(-c2cc(C)c(O)c(C(C)(C)C)c2)cc(C(C)(C)C)c1O
inactive: HL-60 12 µM | BT-549 14.1 µM and 13.1 µM | SK-MEL-2 6.31 µM and 12.2 µM | NCI/ADR-RES 11 µM and 14 µM | CCRF-CEM 5.69 µM and 5.58 µM | M14 10.6 µM and 12.8 µM | ACHN 10.6 µM and 15.7 µM | SR 4.09 µM | SNB-75 14 µM and 12.6 µM | MDA-MB-435 11.5 µM and 14.8 µM | RXF 393 13.4 µM and 11 µM | A498 9.4 µM and 17.1 µM | UACC-257 11.8 µM | OVCAR-8 15.4 µM and 13.4 µM | MDA-MB-231 9.55 µM and 12.9 µM | NCI-H460 6.68 µM and 5.46 µM | MOLT-4 5.79 µM and 5.86 µM | SNB-19 14.6 µM and 13.7 µM

Cc1ccc(-n2nnc(C#N)c2O)cc1
inactive: PC-3 > 100 µM | HL-60 > 100 µM | BT-549 > 100 µM | SK-MEL-2 > 100 µM | NCI/ADR-RES > 100 µM | CCRF-CEM > 100 µM | M14 > 100 µM | ACHN > 100 µM | SNB-75 > 100 µM | MDA-MB-435 > 100 µM | RXF 393 > 100 µM | UACC-257 > 100 µM | OVCAR-8 > 100 µM | MDA-MB-231 > 100 µM | NCI-H460 > 100 µM | MOLT-4 > 100 µM | SNB-19 > 100 µM

COC(=O)C1CC(C=O)=C(SC)N1 (stereo not given)
inactive: PC-3 > 50 µM | BT-549 > 50 µM | SK-MEL-2 > 50 µM | NCI/ADR-RES > 50 µM | M14 > 50 µM | ACHN > 50 µM | SNB-75 > 50 µM | MDA-MB-435 > 50 µM | RXF 393 > 50 µM | A498 > 50 µM | UACC-257 > 50 µM | OVCAR-8 > 50 µM | MDA-MB-231 > 50 µM | NCI-H460 > 50 µM | MOLT-4 > 50 µM | SNB-19 > 50 µM

O=NN1C(c2ccccc2)CC(=NO)CC1c1ccccc1 (stereo not given)
inactive: PC-3 70.3 µM | HL-60 74.5 µM | BT-549 > 100 µM | SK-MEL-2 6.65 µM | NCI/ADR-RES > 100 µM | M14 > 100 µM | ACHN > 100 µM | SNB-75 88.5 µM | MDA-MB-435 > 100 µM | RXF 393 > 100 µM | UACC-257 > 100 µM | OVCAR-8 > 100 µM | MDA-MB-231 > 100 µM | NCI-H460 > 100 µM | MOLT-4 46.3 µM | SNB-19 > 100 µM

CCc1nn(S(=O)(=O)c2ccc(C)cc2)c2c1CS(=O)(=O)CC2
inactive: PC-3 > 100 µM | BT-549 > 100 µM | SK-MEL-2 > 100 µM | NCI/ADR-RES 38.1 µM | M14 > 100 µM | ACHN > 100 µM | SNB-75 > 100 µM | MDA-MB-435 > 100 µM | RXF 393 > 100 µM | A498 > 100 µM | UACC-257 > 100 µM | OVCAR-8 34.9 µM | MDA-MB-231 > 100 µM | NCI-H460 > 100 µM | MOLT-4 > 100 µM | SNB-19 > 100 µM

CC(C)=c1sc(=C(C)C)c2c1=NC(C)(C)N=2
inactive: PC-3 45.9 µM | HL-60 57.4 µM | BT-549 67.3 µM | SK-MEL-2 26.7 µM | NCI/ADR-RES > 100 µM | CCRF-CEM 44.3 µM | M14 77.4 µM | ACHN 37.5 µM | MDA-MB-435 > 100 µM | RXF 393 > 100 µM | A498 87.5 µM | UACC-257 30.9 µM | OVCAR-8 94 µM | MDA-MB-231 > 100 µM | NCI-H460 43.7 µM | MOLT-4 42.4 µM | SNB-19 > 100 µM

Oc1ccc(Br)cc1/C=N/c1c(NC2CCCCC2)oc2ccc(Br)cc12
inactive: HL-60 5.53 µM | BT-549 25.5 µM | NCI/ADR-RES 45.5 µM | CCRF-CEM 4.1 µM | ACHN 35.8 µM | SR 45.9 µM | SNB-75 37.2 µM | MDA-MB-435 35.5 µM | RXF 393 12.9 µM | A498 35.3 µM | UACC-257 37.8 µM | OVCAR-8 37.4 µM | MDA-MB-231 61.5 µM | NCI-H460 50.5 µM | MOLT-4 7.21 µM | SNB-19 > 100 µM

COc1cc(NS(C)(=O)=O)ccc1N1Cc2c[nH]c3ccc4nccc1c4c23
inactive: PC-3 29.6 µM | HL-60 23.6 µM | BT-549 42.9 µM | SK-MEL-2 21.6 µM | NCI/ADR-RES > 100 µM | CCRF-CEM 25.5 µM | M14 42.4 µM | ACHN > 100 µM | MDA-MB-435 34.4 µM | A498 38.5 µM | UACC-257 37.2 µM | OVCAR-8 35.1 µM | MDA-MB-231 24.9 µM | NCI-H460 18.5 µM | MOLT-4 22.3 µM | SNB-19 34.7 µM

CC1=C(Cl)C[C@@H](/C(C)=C\Cl)O[C@@]1(O)C(Br)Br
inactive: PC-3 60.5 µM | HL-60 6.92 µM | BT-549 28.4 µM | SK-MEL-2 28.4 µM | CCRF-CEM 6.27 µM | M14 22.5 µM | ACHN 30.5 µM | SR 19.5 µM | SNB-75 55.6 µM | MDA-MB-435 31.6 µM | RXF 393 19.2 µM | A498 31.1 µM | UACC-257 35.3 µM | OVCAR-8 32.1 µM | MDA-MB-231 19.5 µM | NCI-H460 41.1 µM | MOLT-4 15.6 µM | SNB-19 > 100 µM

CC(=O)Nc1ccc(C(=O)NN2C(=O)CSC2c2ccccc2)cc1 (stereo not given)
inactive: BT-549 34.5 µM | SK-MEL-2 69.5 µM | NCI/ADR-RES > 100 µM | CCRF-CEM > 100 µM | M14 > 100 µM | ACHN > 100 µM | SNB-75 90.8 µM | MDA-MB-435 > 100 µM | RXF 393 > 100 µM | A498 > 100 µM | UACC-257 > 100 µM | OVCAR-8 > 100 µM | MDA-MB-231 > 100 µM | NCI-H460 > 100 µM | MOLT-4 > 100 µM | SNB-19 > 100 µM

CCOC(=O)C1=C(C)N(c2ccc(Cl)cc2)C2(O)C=CC(O)=C3C(=O)c4ccccc4C(=O)C312 (stereo not given)
inactive: PC-3 3.34 µM | HL-60 2.37 µM | BT-549 10.6 µM | SK-MEL-2 4.32 µM | NCI/ADR-RES 2.49 µM | CCRF-CEM 2.34 µM | M14 2.63 µM | ACHN 5 µM | MDA-MB-435 2.59 µM | A498 15.2 µM | UACC-257 18.2 µM | OVCAR-8 5.11 µM | MDA-MB-231 10.9 µM | NCI-H460 5.38 µM | MOLT-4 2.43 µM | SNB-19 12.9 µM

NC1c2c(Cl)sc(Cl)c2C(=O)C1O (stereo not given)
inactive: PC-3 > 100 µM | HL-60 15.4 µM | BT-549 15.6 µM | SK-MEL-2 73.8 µM | NCI/ADR-RES 36.9 µM | CCRF-CEM 19 µM | M14 32.3 µM | ACHN 27.5 µM | SNB-75 33.6 µM | MDA-MB-435 42.2 µM | RXF 393 12.8 µM | A498 > 100 µM | UACC-257 43.4 µM | OVCAR-8 25.9 µM | MDA-MB-231 37.8 µM | NCI-H460 46 µM | MOLT-4 23 µM | SNB-19 41.3 µM
